Measurements reported in patent US20260265233A1, “BENZOTHIOPHENE DERIVATIVES AS RXFP1 AGONISTS” (BRISTOL-MYERS SQUIBB COMPANY, priority 2021, published 2026).

target: T1, human RXFP1 (Homo sapiens, UniProt Q9HBX9); assay: hRXFP1 HEK293 cAMP assay (HTRF); assay type: cell-based; conditions: HEK293 cells stably expressing human RXFP1; 30 min at rt; intracellular cAMP by HTRF
T1 construct: expressed in transfected cells
T1 sequence (Q9HBX9 1-757): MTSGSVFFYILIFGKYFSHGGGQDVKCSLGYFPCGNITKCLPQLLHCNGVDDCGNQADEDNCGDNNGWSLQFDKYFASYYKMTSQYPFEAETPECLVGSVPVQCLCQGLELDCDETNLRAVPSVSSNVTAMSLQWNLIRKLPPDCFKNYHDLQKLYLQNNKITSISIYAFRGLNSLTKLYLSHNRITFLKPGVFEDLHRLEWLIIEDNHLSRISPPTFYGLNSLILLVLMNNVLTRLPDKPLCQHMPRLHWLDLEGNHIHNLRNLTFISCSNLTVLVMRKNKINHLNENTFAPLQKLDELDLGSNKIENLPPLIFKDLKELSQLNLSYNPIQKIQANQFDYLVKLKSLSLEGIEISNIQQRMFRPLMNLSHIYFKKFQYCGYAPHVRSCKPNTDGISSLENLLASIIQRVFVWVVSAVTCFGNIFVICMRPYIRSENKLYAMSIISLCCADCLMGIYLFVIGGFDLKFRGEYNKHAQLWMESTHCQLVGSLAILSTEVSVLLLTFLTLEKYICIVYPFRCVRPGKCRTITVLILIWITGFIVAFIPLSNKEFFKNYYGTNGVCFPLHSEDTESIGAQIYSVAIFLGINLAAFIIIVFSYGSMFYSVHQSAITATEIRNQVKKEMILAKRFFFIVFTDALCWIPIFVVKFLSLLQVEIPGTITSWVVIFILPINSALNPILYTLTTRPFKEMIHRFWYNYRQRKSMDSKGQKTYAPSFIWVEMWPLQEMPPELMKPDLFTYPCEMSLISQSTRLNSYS
In short: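 Agonism is measured as cAMP by HTRF, quantified from a standard curve via the 665/590 nm ratio and fitted with a four-parameter logistic equation. Compounds (0.010 nM to 50 μM final, 2% DMSO) were applied for 30 min at rt to human RXFP1-expressing HEK293 cells in assay buffer containing 0.5 mM IBMX.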

SMILES | EC50 [nM]
COc1cc(F)c(C(=O)N2CC3(COC3)C2)cc1C(=O)Nc1c(C(=O)Nc2ccc(F)c(C(F)(F)F)c2)sc2cc(C(F)(F)F)ccc12 [Example 185, 3-(4-fluoro-2-methoxy-5-(2-oxa-6-azaspiro[3.3]heptane-6-carbonyl)benzamido)-N-(4-fluoro-3-(trifluoromethyl)phenyl)-6-(trifluoromethyl) benzo[b] thiophene-2-carboxamide] | 736
COc1ccc(CCCO)cc1C(=O)Nc1c(C(=O)NC2CCCC(C(F)(F)F)C2)sc2cc(C(F)(F)F)ccc12 (single isomer, unassigned) [Example 44, 3-(5-(3-hydroxypropyl)-2-methoxybenzamido)-6-(trifluoromethyl)-N-(3-(trifluoromethyl)cyclohexyl) benzo[b]thiophene-2-carboxamide] | 3740
COc1ccc(C2CC2C(C)(C)O)cc1C(=O)Nc1c(C(=O)Nc2ccc(F)c(C(F)(F)F)c2)sc2cc(C(F)(F)F)ccc12 (single isomer, unassigned) [Example 160, N-[4-fluoro-3-(trifluoromethyl)phenyl]-3-{5-[2-(2-hydroxypropan-2-yl)cyclopropyl]-2-methoxy-benzamido}-6-(trifluoromethyl)-1-benzothiophene-2-carboxamide] | 2300
COc1ccc(C(=O)N2CCC(O)CC2)cc1C(=O)Nc1c(C(=O)Nc2ccc(F)c(C(F)(F)F)c2)sc2cc(C(F)(F)F)ccc12 [Example 132, N-(4-fluoro-3-(trifluoromethyl)phenyl)-3-(5-(4-hydroxy-piperidine-1-carbonyl)-2-methoxy-benzamido)-6-(trifluoromethyl) benzo[b] thiophene-2-carboxamide] | 135
COc1ccc(C2CCCN(CCS(C)(=O)=O)CC2)cc1C(=O)Nc1c(C(=O)Nc2ccc(F)c(C(F)(F)F)c2)sc2cc(C(F)(F)F)ccc12 (stereo not shown) [Example 74, N-(4-fluoro-3-(trifluoromethyl)phenyl)-3-(2-methoxy-5-(1-(2-(methylsulfonyl)ethyl)azepan-4-yl)benzamido)-6-(trifluoromethyl) benzo[b] thiophene-2-carboxamide] | 3370
COc1ccc(C2=NOC(C(C)(C)O)C2)cc1C(=O)Nc1c(C(=O)Nc2ccc(F)c(C(F)(F)F)c2)sc2cc(C(F)(F)F)ccc12 (single isomer, unassigned) [Example 258, N-[4-fluoro-3-(trifluoromethyl)phenyl]-3-{5-[5-(2-hydroxypropan-2-yl)-4,5-dihydro-1,2-oxazol-3-yl]-2-methoxy-benzamido}-6-(trifluoromethyl)-1-benzothiophene-2-carboxamide] | 673
COc1ccc(C2CCCC(NC3COC3)C2)cc1C(=O)Nc1c(C(=O)Nc2ccc(F)c(C(F)(F)F)c2)sc2cc(C(F)(F)F)ccc12 (single isomer, unassigned) [Example 62, N-(4-fluoro-3-(trifluoromethyl)phenyl)-3-(2-methoxy-5-(3-(oxetan-3-ylamino)cyclohexyl)benzamido)-6-(trifluoromethyl) benzo[b] thiophene-2-carboxamide] | 1460
COc1ccc(N2CCCC(C(C)(C)O)C2)cc1C(=O)Nc1c(C(=O)Nc2ccc(F)c(C(F)(F)F)c2)sc2cc(C(F)(F)F)ccc12 (single isomer, unassigned) [Example 108, N-(4-fluoro-3-(trifluoromethyl)phenyl)-3-(5-(3-(2-hydroxypropan-2-yl)piperidin-1-yl)-2-methoxy-benzamido)-6-(trifluoromethyl) benzo[b] thiophene-2-carboxamide] | 1430
COc1ccc(N2CCCC(C(=O)NC3COC3)C2)cc1C(=O)Nc1c(C(=O)Nc2ccc(F)c(C(F)(F)F)c2)sc2cc(C(F)(F)F)ccc12 (single isomer, unassigned) [Example 188, 1-(3-((2-((4-fluoro-3-(trifluoromethyl)phenyl)carbamoyl)-6-(trifluoromethyl)benzo[b]thiophen-3-yl)carbamoyl)-4-methoxyphenyl)-N-(oxetan-3-yl)piperidine-3-carboxamide] | 772
COc1ccc(N2CCCC(C(=O)NCC(C)(C)O)C2)cc1C(=O)Nc1c(C(=O)Nc2ccc(F)c(C(F)(F)F)c2)sc2cc(C(F)(F)F)ccc12 (single isomer, unassigned) [Example 7, 1-(3-((2-((4-fluoro-3-(trifluoromethyl)phenyl)carbamoyl)-6-(trifluoromethyl)benzo[b]thiophen-3-yl)carbamoyl)-4-methoxyphenyl)-N-(2-hydroxy-2-methylpropyl) piperidine-3-carboxamide] | 661

Now from value to compound:

EC50 [nM] | SMILES
1060 | COc1ccc(S(=O)(=O)N2CCC(C(C)(C)O)CC2)cc1C(=O)Nc1c(C(=O)Nc2ccc(F)c(C(F)(F)F)c2)sc2cc(C(F)(F)F)ccc12 [Example 225, N-(4-fluoro-3-(trifluoromethyl)phenyl)-3-(5-((4-(2-hydroxypropan-2-yl)piperidin-1-yl)sulfonyl)-2-methoxy-benzamido)-6-(trifluoromethyl) benzo[b] thiophene-2-carboxamide]
95.8 | COc1ccc(C2CCCN(C(=O)CO)C2)cc1C(=O)Nc1c(C(=O)Nc2ccc(F)c(C(F)(F)F)c2)sc2cc(C(F)(F)F)ccc12 (single isomer, unassigned) [Example 91, N-[4-fluoro-3-(trifluoromethyl)phenyl]-3-{5-[1-(2-hydroxyacetyl)piperidin-3-yl]-2-methoxy-benzamido}-6-(trifluoromethyl)-1-benzothiophene-2-carboxamide]
857 | COc1ccc(-c2cc(CN(C)C)on2)cc1C(=O)Nc1c(C(=O)Nc2ccc(F)c(C(F)(F)F)c2)sc2cc(C(F)(F)F)ccc12 [Example 273, 3-(5-(5-((dimethylamino)methyl)isoxazol-3-yl)-2-methoxy-benzamido)-N-(4-fluoro-3-(trifluoromethyl)phenyl)-6-(trifluoromethyl) benzo[b] thiophene-2-carboxamide]
216 | COc1ccc(C2CCCC(O)C2)cc1C(=O)Nc1c(C(=O)Nc2ccc(F)c(C(F)(F)F)c2)sc2cc(C(F)(F)F)ccc12 (single isomer, unassigned) [Example 33, N-(4-fluoro-3-(trifluoromethyl)phenyl)-3-(5-(3-hydroxycyclohexyl)-2-methoxybenzamido)-6-(trifluoromethyl)benzo[b]thiophene-2-carboxamide]
634 | COc1ccc(C2CCN(C(=O)C3CC3(F)F)C2)cc1C(=O)Nc1c(C(=O)Nc2ccc(F)c(C(F)(F)F)c2)sc2cc(C(F)(F)F)ccc12 (stereo not shown) [Example 134, 3-(5-(1-(2,2-difluorocyclo-propane-1-carbonyl)pyrrolidin-3-yl)-2-methoxy-benzamido)-N-(4-fluoro-3-(trifluoromethyl)phenyl)-6-(trifluoromethyl) benzo[b] thiophene-2-carboxamide]
1260 | COc1ccc(-c2cc(CO)on2)cc1C(=O)Nc1c(C(=O)Nc2ccc(F)c(C(F)(F)F)c2)sc2cc(C(F)(F)F)ccc12 [Example 287, N-(4-fluoro-3-(trifluoromethyl)phenyl)-3-(5-(5-(hydroxymethyl)isoxazol-3-yl)-2-methoxy-benzamido)-6-(trifluoromethyl) benzo[b] thiophene-2-carboxamide]
